Publication PMC2247230, “Synthesis of somatostatin by breast cancer cells and their inhibition by exogenous somatostatin and sandostatin” (British Journal of Cancer, 1989)
Where two headings read alike, the source gives them in different places.

Tests used:
[1] = read-out RIA
[2] = rat kidney homogenates, ref Pless et al., 1986, cited from earlier work
Text: In the presence of fe ...

MDA-MB-436 cells = system: MDA-MB-436 cells
Text: (§1) Somatostatin is a neuroendocrine hormone which inhibits not only exocrine and endocrine secretion, but also mito- genesis. Somatostatin-synthesising cells have a widespread anatomical distribution, being found in regions of the central nervous system and gastrointestinal tract. […] There have been few studies of the presence of SLI in breast cancer specimens. […] Inhibition of tumour growth may be indirect, through inhibition of endocrine secretion. […] Correspondence: J. Nelson. Received 5 October 1988, and in revised form, 9 January 1989. Materials and methods Tissue culture All media and fetal calf serum (FCS) were obtained from Flow Laboratories, Rickmansworth, UK. The same batch of serum was used throughout. […] Cell proliferation assays To assess the effects of somatostatin and Sandostatin, 5 x 10^4 cells were inoculated in 24-well tissue culture plates (Costar, Northumbria Biologicals Ltd, Cramlington, UK)- .After one day, plating efficiency was determined in a repre- sentative set of wells (cell counts, day 0) by trypsinisation and electronic cell counting (Coulter counter model ZBI, Coulter Electronics, Luton, UK). […] Thereafter cells were removed and counted at the times indicated.

ZR-75-1 cells = assay: Cell proliferation assay (electronic cell counting), ZR-75-1; assay type: cell-based, human
Text: Somatostatin is a neuroendocrine hormone which inhibits not only exocrine and endocrine secretion, but also mito- genesis. Somatostatin-synthesising cells have a widespread anatomical distribution, being found in regions of the central nervous system and gastrointestinal tract. […] There have been few studies of the presence of SLI in breast cancer specimens. […] Inhibition of tumour growth may be indirect, through inhibition of endocrine secretion. […] Correspondence: J. Nelson. Received 5 October 1988, and in revised form, 9 January 1989. Materials and methods Tissue culture All media and fetal calf serum (FCS) were obtained from Flow Laboratories, Rickmansworth, UK. The same batch of serum was used throughout. MCF-7 cells, a gift from Dr C.R. Green, Liverpool University, were routinely cultured in modified Eagle's mini- mal essential medium (MEM) supplemented with non- essential amino acids, sodium pyruvate (1 mM) and 5% v/v FCS. ZR-75-1 and MDA-MB-436 cells were obtained from the American Tissue Culture Collection. ZR-75-1 cells were cultured in RPMI 1640 medium containing 5% FCS. MDA- MB-436 cells were cultured in Liebowitz 15 medium contain- ing 10% FCS. All media contained Phenol Red and were supplemented with penicillin (1OOIUml-1) and streptomycin (100 ug ml- 1). Cell proliferation assays To assess the effects of somatostatin and Sandostatin, 5 x 10^4 cells were inoculated in 24-well tissue culture plates (Costar, Northumbria Biologicals Ltd, Cramlington, UK)- .After one day, plating efficiency was determined in a repre- sentative set of wells (cell counts, day 0) by trypsinisation and electronic cell counting (Coulter counter model ZBI, Coulter Electronics, Luton, UK). At this time medium was removed from remaining wells and replaced with fresh medium (control) or medium containing peptide (treatment) as indicated. Control and treatment media were either unchanged or changed daily during the course of the experi- ments, or control and treatment media were removed after one day exposure (i.e. from day 0 to day 1) and replaced by control medium. Thereafter cells were removed and counted at the times indicated.

MCF-7 cells = assay: Cell proliferation assay (electronic cell counting), MCF-7; assay type: cell-based, human; conditions: 500 ng ml-1, 6 days continuous exposure without medium changes, MEM plus 5% FCS (Figure 4); mean of 3-5 wells
Text: as §1

[3] = system: Antiserum to somatostatin-14; assay: Somatostatin radioimmunoassay, specificity (displacement of 125I-Tyr11 somatostatin-14); assay type: binding; conditions: 20 h at 4 C, charcoal/dextran separation; for sensitivity of the RIA to the substance (displacement of label): triplicate

C[C@H](N)C(=O)NCC(=O)N[C@H]1CSSC[C@@H](C(=O)O)NC(=O)[C@H](CO)NC(=O)[C@H]([C@@H](C)O)NC(=O)[C@H](Cc2ccccc2)NC(=O)[C@H]([C@@H](C)O)NC(=O)[C@H](CCCCN)NC(=O)[C@H](Cc2c[nH]c3ccccc23)NC(=O)[C@H](Cc2ccccc2)NC(=O)[C@H](Cc2ccccc2)NC(=O)[C@H](CC(N)=O)NC(=O)[C@H](CCCCN)NC1=O [somatostatin]
exogenous somatostatin remaining, as measured by RIA ([1]; after two days in 5% FCS with or without cells): undetectable
exogenous somatostatin remaining, as measured by RIA ([1]; in the presence of 5% FCS alone (no cells), after one day incubation): < 50%
exogenous somatostatin remaining, as measured by RIA ([1]; in the presence of cells and 5% FCS, RPMI 1640, ZR-75-1 cells, 500 ng ml-1, after one day incubation): < 20%
remaining of starting levels after degradation ([2]; within 1 h): < 25%
cytotoxic effects in serum-free conditions (MDA-MB-436 cells; serum-free conditions (results not shown)): no cytotoxic effects

Sandostatin
effect of one day exposure followed by return to control medium on cell proliferation (ZR-75-1 cells; 500 ng ml-1, 5% FCS, exposure day 0 to day 1, then control medium (Figures 1c, 2b)): much less effective in inhibiting cell proliferation than a continuous exposure
inhibition of ZR-75-1 cell proliferation compared with relevant control populations (ZR-75-1 cells; continuous exposure to single or repeated doses of 500 ng ml-1, in the presence of FCS, day 6 (Figures 1a, b and 2a)): > 3 fold
influence of insulin on the inhibitory effect (ZR-75-1 cells; in the presence of insulin, 5% FCS (results not shown)): not more pronounced in the presence of insulin
concentration giving consistent inhibition of growth (ZR-75-1 cells; range 10-500 ng ml-1 tested, without medium changes): 500 ng/mL
lowest concentration at which inhibition was occasionally observed (ZR-75-1 cells; range 10-500 ng ml-1 tested, without medium changes, inhibition at low concentrations variable): 25 ng ml -1
degradation by homogenate ([2]; up to 20h): virtually unaffected
effect of continuous exposure on growth (final cell numbers) (MDA-MB-436 cells; 500 ng ml-1, 6 days continuous exposure without medium changes, L-15 plus 10% FCS (Figure 4), mean of 3-5 wells): inhibition of growth
effect of continuous exposure on growth (final cell numbers) (MCF-7 cells): inhibition of growth
sensitivity of the RIA to the substance (displacement of label) ([3]; 500 fmol per tube): insensitive

EGF
sensitivity of the RIA to the substance (displacement of label) ([3]; 1,000 fmol per tube): insensitive

somatostatin-28
displacement of label in the RIA ([3]; compared with somatostatin-14): displacement of label was found with somatostatin-28 at higher molarities

bacitracin
sensitivity of the RIA to the substance (displacement of label) ([3]; 1,000 fmol per tube): insensitive

leupeptin
sensitivity of the RIA to the substance (displacement of label) ([3]; 2,000 fmol per tube): insensitive

B1: prolactin (protein, UniProt P01236 29-227, looked up)
Prolactin: LPICPGGAARCQVTLRDLFDRAVVLSHYIHNLSSEMFSEFDKRYTHGRGFITKAINSCHTSSLATPEDKEQAQQMNQKDFLSLIVSILRSWNEPLYHLVTEVRGMQEAPEAILSKAVEIEEQTKRLLEGMELIVSQVHPETKENEIYPVWSGLPSLQMADEESRLSAYYNLLHCLRRDSHKIDNYLKLLKCRIIHNNNC
notes: substance tested for cross-reaction in the somatostatin RIA
sensitivity of the RIA to the substance (displacement of label) ([3]; 2,000 fmol per tube): insensitive
